Species: Rattus norvegicus
Assay: DrugMatrix - Regimen: Daily Repeat
Assay type: toxicity, organism-based, Sprague-Dawley
Set-up: regimen Daily Repeat, gender Male, age 6-8 weeks
Settings: in vivo, po, route oral GAVAGE, vehicle 100 % WATER; for BASOPHIL / EOSINOPHIL / ERYTHROCYTE COUNT / HEMATOCRIT / HEMOGLOBIN / LEUKOCYTE COUNT / LYMPHOCYTE / MEAN CORPUSCULAR HEMOGLOBIN / MEAN CORPUSCULAR HEMOGLOBIN CONCENTRATION / MEAN CORPUSCULAR VOLUME / MONOCYTE / NEUTROPHIL / PLATELET COUNT: tissue Blood; for ALANINE AMINOTRANSFERASE / ALBUMIN / ALKALINE PHOSPHATASE / ASPARTATE AMINOTRANSFERASE / BLOOD UREA NITROGEN / CHLORIDE / CHOLESTEROL / CREATINE PHOSPHOKINASE / CREATININE / GLUCOSE / PHOSPHORUS / POTASSIUM / SODIUM / TOTAL BILIRUBIN / TOTAL PROTEIN: tissue Plasma
[1] = 0 mg/kg, 72 h, dose level Control, time 3 day
[2] = 0 mg/kg, 120 h, dose level Control, time 5 day
[3] = 45 mg/kg, 72 h, dose level Low, time 3 day
[4] = 45 mg/kg, 120 h, dose level Low, time 5 day

Compound: Nc1ccc(S(=O)(=O)Nc2ncccn2)cc1 [SULFADIAZINE]
- BASOPHIL [1]: 0%
- EOSINOPHIL [1]: 0.5%
- ERYTHROCYTE COUNT [1]: 5.8 x10E6/uL
- HEMATOCRIT [1]: 35.07%
- HEMOGLOBIN [1]: 14.12 G/DL
- LEUKOCYTE COUNT [1]: 13.7 x10E3/uL
- LYMPHOCYTE [1]: 82.33%
- MEAN CORPUSCULAR HEMOGLOBIN [1]: 24.38 pg
- MEAN CORPUSCULAR HEMOGLOBIN CONCENTRATION [1]: 40.28 G/DL
- MEAN CORPUSCULAR VOLUME [1]: 60.52 fL
- MONOCYTE [1]: 2.67%
- NEUTROPHIL [1]: 14.5%
- PLATELET COUNT [1]: 911.5 x10E3/uL
- ALANINE AMINOTRANSFERASE [1]: 36.83 u/L
- ALBUMIN [1]: 3.75 G/DL
- ALKALINE PHOSPHATASE [1]: 399.83 u/L
- ASPARTATE AMINOTRANSFERASE [1]: 66 u/L
- BLOOD UREA NITROGEN [1]: 14.67 mg/dL
- CHLORIDE [1]: 101.67 MEQ/L
- CHOLESTEROL [1]: 66.33 mg/dL
- CREATINE PHOSPHOKINASE [1]: 139.5 u/L
- CREATININE [1]: 0.92 mg/dL
- GLUCOSE [1]: 175 mg/dL
- PHOSPHORUS [1]: 11.42 mg/dL
- POTASSIUM [1]: 7.03 MEQ/L
- SODIUM [1]: 148.5 MEQ/L
- TOTAL BILIRUBIN [1]: 1.13 mg/dL
- TOTAL PROTEIN [1]: 6.87 G/DL
- BASOPHIL [2]: 0%
- EOSINOPHIL [2]: 0.2%
- ERYTHROCYTE COUNT [2]: 6.02 x10E6/uL
- HEMATOCRIT [2]: 36.48%
- HEMOGLOBIN [2]: 14.38 G/DL
- LEUKOCYTE COUNT [2]: 12.34 x10E3/uL
- LYMPHOCYTE [2]: 83%
- MEAN CORPUSCULAR HEMOGLOBIN [2]: 23.92 pg
- MEAN CORPUSCULAR HEMOGLOBIN CONCENTRATION [2]: 39.44 G/DL
- MEAN CORPUSCULAR VOLUME [2]: 60.66 fL
- MONOCYTE [2]: 3%
- NEUTROPHIL [2]: 13.8%
- PLATELET COUNT [2]: 1190.6 x10E3/uL
- ALANINE AMINOTRANSFERASE [2]: 43 u/L
- ALBUMIN [2]: 3.73 G/DL
- ALKALINE PHOSPHATASE [2]: 393 u/L
- ASPARTATE AMINOTRANSFERASE [2]: 62.33 u/L
- BLOOD UREA NITROGEN [2]: 16.33 mg/dL
- CHLORIDE [2]: 101.67 MEQ/L
- CHOLESTEROL [2]: 65.5 mg/dL
- CREATINE PHOSPHOKINASE [2]: 130.67 u/L
- CREATININE [2]: 0.58 mg/dL
- GLUCOSE [2]: 180.67 mg/dL
- PHOSPHORUS [2]: 11.28 mg/dL
- POTASSIUM [2]: 7.05 MEQ/L
- SODIUM [2]: 148.17 MEQ/L
- TOTAL BILIRUBIN [2]: 0.72 mg/dL
- TOTAL PROTEIN [2]: 6.83 G/DL
- BASOPHIL [3]: 0%
- EOSINOPHIL [3]: 0%
- ERYTHROCYTE COUNT [3]: 6.15 x10E6/uL
- HEMATOCRIT [3]: 35.77%
- HEMOGLOBIN [3]: 14.2 G/DL
- LEUKOCYTE COUNT [3]: 14.83 x10E3/uL
- LYMPHOCYTE [3]: 84%
- MEAN CORPUSCULAR HEMOGLOBIN [3]: 23.1 pg
- MEAN CORPUSCULAR HEMOGLOBIN CONCENTRATION [3]: 39.67 G/DL
- MEAN CORPUSCULAR VOLUME [3]: 58.17 fL
- MONOCYTE [3]: 2%
- NEUTROPHIL [3]: 14%
- PLATELET COUNT [3]: 1166 x10E3/uL
- ALANINE AMINOTRANSFERASE [3]: 33 u/L
- ALBUMIN [3]: 3.57 G/DL
- ALKALINE PHOSPHATASE [3]: 285 u/L
- ASPARTATE AMINOTRANSFERASE [3]: 56 u/L
- BLOOD UREA NITROGEN [3]: 11.67 mg/dL
- CHLORIDE [3]: 102 MEQ/L
- CHOLESTEROL [3]: 73.33 mg/dL
- CREATINE PHOSPHOKINASE [3]: 134 u/L
- CREATININE [3]: 0.6 mg/dL
- GLUCOSE [3]: 186 mg/dL
- PHOSPHORUS [3]: 11.9 mg/dL
- POTASSIUM [3]: 7 MEQ/L
- SODIUM [3]: 149.67 MEQ/L
- TOTAL BILIRUBIN [3]: 0.3 mg/dL
- TOTAL PROTEIN [3]: 6.33 G/DL
- BASOPHIL [4]: 0%
- EOSINOPHIL [4]: 0.33%
- ERYTHROCYTE COUNT [4]: 6.55 x10E6/uL
- HEMATOCRIT [4]: 40.3%
- HEMOGLOBIN [4]: 15.6 G/DL
- LEUKOCYTE COUNT [4]: 12.63 x10E3/uL
- LYMPHOCYTE [4]: 84%
- MEAN CORPUSCULAR HEMOGLOBIN [4]: 23.9 pg
- MEAN CORPUSCULAR HEMOGLOBIN CONCENTRATION [4]: 38.8 G/DL
- MEAN CORPUSCULAR VOLUME [4]: 61.57 fL
- MONOCYTE [4]: 1%
- NEUTROPHIL [4]: 14.67%
- PLATELET COUNT [4]: 1086.33 x10E3/uL
- ALANINE AMINOTRANSFERASE [4]: 37.67 u/L
- ALBUMIN [4]: 3.9 G/DL
- ALKALINE PHOSPHATASE [4]: 378 u/L
- ASPARTATE AMINOTRANSFERASE [4]: 55.67 u/L
- BLOOD UREA NITROGEN [4]: 12.67 mg/dL
- CHLORIDE [4]: 104 MEQ/L
- CHOLESTEROL [4]: 66.33 mg/dL
- CREATINE PHOSPHOKINASE [4]: 110.67 u/L
- CREATININE [4]: 0.63 mg/dL
- GLUCOSE [4]: 181.67 mg/dL
- PHOSPHORUS [4]: 12.57 mg/dL
- POTASSIUM [4]: 7.23 MEQ/L
- SODIUM [4]: 151.33 MEQ/L
- TOTAL BILIRUBIN [4]: 0.4 mg/dL
- TOTAL PROTEIN [4]: 7.03 G/DL
